Assay results reported in article PMC4344604, “Synthesis and Biological Evaluation of Carbocyclic Analogues of Pachastrissamine” (Marine Drugs, 2015).
Where two headings read alike, the source gives them in different places.

Columns and labels:
SphK1 = biological target: T1, SphK1 (Homo sapiens, UniProt Q9NYA1); test: ADP-Glo kinase assay; type: biochemical
T1 construct: commercial enzyme from BPS Bioscience; human given only for the docking structure 3VZB

SphK2 = biological target: T2, SphK2 (Homo sapiens, UniProt Q9NRA0); test: ADP-Glo kinase assay; type: biochemical
T2 construct: commercial enzyme from BPS Bioscience
T2 sequence (Q9NRA0 1-654): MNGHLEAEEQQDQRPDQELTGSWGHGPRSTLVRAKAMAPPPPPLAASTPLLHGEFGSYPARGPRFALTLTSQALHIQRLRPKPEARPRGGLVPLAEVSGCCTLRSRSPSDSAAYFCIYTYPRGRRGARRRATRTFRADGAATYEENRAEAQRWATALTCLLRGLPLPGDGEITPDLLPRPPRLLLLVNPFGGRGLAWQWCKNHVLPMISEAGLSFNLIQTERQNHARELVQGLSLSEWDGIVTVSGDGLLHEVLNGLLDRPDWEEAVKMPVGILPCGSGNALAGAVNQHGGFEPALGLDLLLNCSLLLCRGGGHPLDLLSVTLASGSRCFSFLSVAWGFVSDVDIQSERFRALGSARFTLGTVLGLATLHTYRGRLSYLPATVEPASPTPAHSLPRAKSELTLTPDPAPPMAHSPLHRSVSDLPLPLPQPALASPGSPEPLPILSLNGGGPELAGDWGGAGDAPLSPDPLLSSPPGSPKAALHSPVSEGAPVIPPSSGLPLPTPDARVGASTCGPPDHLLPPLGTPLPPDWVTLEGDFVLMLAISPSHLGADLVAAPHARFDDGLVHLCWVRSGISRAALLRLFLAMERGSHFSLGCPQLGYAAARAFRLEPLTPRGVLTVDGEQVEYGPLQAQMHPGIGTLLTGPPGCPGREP
From the text: ADP-Glo kinase assay on SphK2

T1 sequence (Q9NYA1 whole entry): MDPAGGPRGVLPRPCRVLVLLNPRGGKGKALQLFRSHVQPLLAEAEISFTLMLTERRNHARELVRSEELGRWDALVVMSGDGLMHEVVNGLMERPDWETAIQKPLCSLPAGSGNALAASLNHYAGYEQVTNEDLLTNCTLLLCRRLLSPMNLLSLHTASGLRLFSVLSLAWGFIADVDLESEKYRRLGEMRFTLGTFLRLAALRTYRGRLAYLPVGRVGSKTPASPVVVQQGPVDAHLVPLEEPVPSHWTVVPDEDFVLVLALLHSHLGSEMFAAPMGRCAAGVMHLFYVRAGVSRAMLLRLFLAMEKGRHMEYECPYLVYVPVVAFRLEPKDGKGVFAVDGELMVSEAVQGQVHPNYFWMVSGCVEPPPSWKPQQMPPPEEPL

CCCCCCCCCCCC[C@@H]1CC[C@H](N)[C@@H]1O [4a, (1R,2S,5R)-2-Amino-5-dodecylcyclopentan-1-ol] was tested, and the IC50 (SphK1) was 58.2 µM and the IC50 (SphK2) was > 100 µM.
In the case of CCCCCCCCCCCCCC[C@@H]1CC[C@H](N)[C@@H]1O [4b, (1R,2S,5R)-2-Amino-5-tetradecylcyclopentan-1-ol], the IC50 (SphK1) is reported as 7.5 µM and the IC50 (SphK2) is reported as 20.1 µM.
CCCCCCCCCCCCCCCC[C@@H]1CC[C@H](N)[C@@H]1O [4c, (1R,2S,5R)-2-Amino-5-hexadecylcyclopentan-1-ol] was tested, and the IC50 (SphK1) was 41.3 µM and the IC50 (SphK2) was > 100 µM.
CCCCCCCCCCCCC/C=C/[C@@H](O)[C@H](CO)N(C)C [N,N-dimethylsphingosine] was tested, and the IC50 (SphK2; 1 µM sphingosine, 150 µM ATP, 5 mM MgCl2, pH 7.2, 1% DMSO, 1 h, room temperature) was 19.9 µM.
With CCCCCCCCCCCCCC[C@@H]1OC[C@H](N)[C@@H]1O [compound 1, pachastrissamine] the IC50 (SphK1) was 12 µM and the IC50 (SphK2) was 41.8 µM.
